Reference: PubChem BioAssay (NCI)
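Briefly, cells in 96-well plates were exposed to five compound concentrations for 48 h, and endpoints were estimated by linear interpolation. TGI denotes the concentration required for complete inhibition of growth.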

Columns and labels:
Assay in all cases: NCI anticancer screen, dose series, 48 h
NCI/ADR-RES ovarian = test system: NCI/ADR-RES ovarian
COLO 205 colon = test system: COLO 205 colon
TK-10 renal = test system: TK-10 renal
UACC-257 melanoma = test system: UACC-257 melanoma
T-47D breast = test system: T-47D breast
SN12C renal = test system: SN12C renal
HOP-92 NSCLC = test system: HOP-92 NSCLC
UACC-62 melanoma = test system: UACC-62 melanoma
OVCAR-4 ovarian = test system: OVCAR-4 ovarian
MOLT-4 leukemia = test system: MOLT-4 leukemia
SK-MEL-5 melanoma = test system: SK-MEL-5 melanoma
SF-539 CNS = test system: SF-539 CNS
EKVX NSCLC = test system: EKVX NSCLC
NCI-H460 lung = test system: NCI-H460 lung
MALME-3M melanoma = test system: MALME-3M melanoma
SK-MEL-2 melanoma = test system: SK-MEL-2 melanoma
CCRF-CEM leukemia = test system: CCRF-CEM leukemia
SR leukemia = test system: SR leukemia
OVCAR-8 ovarian = test system: OVCAR-8 ovarian
NCI-H226 lung = test system: NCI-H226 lung
MDA-N = test system: MDA-N
RPMI-8226 leukemia = test system: RPMI-8226 leukemia
NCI-H23 lung = test system: NCI-H23 lung
K-562 leukemia = test system: K-562 leukemia
RXF 393 renal = test system: RXF 393 renal
HCT-15 colon = test system: HCT-15 colon
OVCAR-5 ovarian = test system: OVCAR-5 ovarian
U251 CNS = test system: U251 CNS
SNB-19 CNS = test system: SNB-19 CNS
SW-620 colon = test system: SW-620 colon
HOP-62 NSCLC = test system: HOP-62 NSCLC
MDA-MB-231 breast = test system: MDA-MB-231 breast
KM12 colon = test system: KM12 colon
A549 NSCLC = test system: A549 NSCLC
MCF7 breast = test system: MCF7 breast
A498 renal = test system: A498 renal
BT-549 breast = test system: BT-549 breast
MDA-MB-435 = test system: MDA-MB-435
SK-OV-3 ovarian = test system: SK-OV-3 ovarian
CAKI-1 renal = test system: CAKI-1 renal
DU-145 prostate = test system: DU-145 prostate
ACHN renal = test system: ACHN renal
M14 melanoma = test system: M14 melanoma
SK-MEL-28 melanoma = test system: SK-MEL-28 melanoma
OVCAR-3 ovarian = test system: OVCAR-3 ovarian
SF-268 CNS = test system: SF-268 CNS
HL-60(TB) leukemia = test system: HL-60(TB) leukemia
HCT-116 colon = test system: HCT-116 colon
HT29 colon = test system: HT29 colon
IGROV1 ovarian = test system: IGROV1 ovarian
PC-3 prostate = test system: PC-3 prostate
SNB-75 CNS = test system: SNB-75 CNS
UO-31 renal = test system: UO-31 renal
HS 578T breast = test system: HS 578T breast
NCI-H522 lung = test system: NCI-H522 lung
SF-295 CNS = test system: SF-295 CNS
LOX IMVI melanoma = test system: LOX IMVI melanoma
786-0 renal = test system: 786-0 renal

Structure (SMILES): CCOc1ccccc1/C=C(/C#N)C(N)=O
- TGI (NCI/ADR-RES ovarian): > 100 µM
- TGI (COLO 205 colon): > 100 µM
- TGI (TK-10 renal): > 100 µM
- TGI (UACC-257 melanoma): > 100 µM
- TGI (T-47D breast): > 100 µM
- TGI (SN12C renal): > 100 µM
- TGI (HOP-92 NSCLC): > 100 µM
- TGI (UACC-62 melanoma): > 100 µM
- TGI (OVCAR-4 ovarian): > 100 µM
- TGI (MOLT-4 leukemia): > 100 µM
- TGI (SK-MEL-5 melanoma): > 100 µM
- TGI (SF-539 CNS): > 100 µM
- TGI (EKVX NSCLC): > 100 µM
- TGI (NCI-H460 lung): > 100 µM
- TGI (MALME-3M melanoma): > 100 µM
- TGI (SK-MEL-2 melanoma): > 100 µM
- TGI (CCRF-CEM leukemia): 73.7 µM
- TGI (SR leukemia): > 100 µM
- TGI (OVCAR-8 ovarian): > 100 µM
- TGI (NCI-H226 lung): > 100 µM
- TGI (MDA-N): 45.7 µM
- TGI (RPMI-8226 leukemia): > 100 µM
- TGI (NCI-H23 lung): > 100 µM
- TGI (K-562 leukemia): > 100 µM
- TGI (RXF 393 renal): > 100 µM
- TGI (HCT-15 colon): > 100 µM
- TGI (OVCAR-5 ovarian): > 100 µM
- TGI (U251 CNS): > 100 µM
- TGI (SNB-19 CNS): > 100 µM
- TGI (SW-620 colon): > 100 µM
- TGI (HOP-62 NSCLC): > 100 µM
- TGI (MDA-MB-231 breast): > 100 µM
- TGI (KM12 colon): > 100 µM
- TGI (A549 NSCLC): > 100 µM
- TGI (MCF7 breast): > 100 µM
- TGI (A498 renal): > 100 µM
- TGI (BT-549 breast): > 100 µM
- TGI (MDA-MB-435): 41.9 µM
- TGI (SK-OV-3 ovarian): > 100 µM
- TGI (CAKI-1 renal): > 100 µM
- TGI (DU-145 prostate): > 100 µM
- TGI (ACHN renal): > 100 µM
- TGI (M14 melanoma): > 100 µM
- TGI (SK-MEL-28 melanoma): > 100 µM
- TGI (OVCAR-3 ovarian): > 100 µM
- TGI (SF-268 CNS): > 100 µM
- TGI (HL-60(TB) leukemia): > 100 µM
- TGI (HCT-116 colon): > 100 µM
- TGI (HT29 colon): > 100 µM
- TGI (IGROV1 ovarian): > 100 µM
- TGI (PC-3 prostate): > 100 µM
- TGI (SNB-75 CNS): > 100 µM
- TGI (UO-31 renal): > 100 µM
- TGI (HS 578T breast): > 100 µM
- TGI (NCI-H522 lung): > 100 µM
- TGI (SF-295 CNS): > 100 µM
- TGI (LOX IMVI melanoma): > 100 µM
- TGI (786-0 renal): > 100 µM

Structure (SMILES): C#CC1(O)C(COP(=O)(O)OC(COCCCCCCCCCCCCCCCCCC)COP(=O)(O)OCC2OC(n3cc(C)c(=O)[nH]c3=O)CC2N=[N+]=[N-])OC(n2ccc(N)nc2=O)C1O (stereo unspecified)
- TGI (NCI/ADR-RES ovarian): 16.6 µM
- TGI (COLO 205 colon): 5.23 µM
- TGI (TK-10 renal): 10.2 µM
- TGI (UACC-257 melanoma): > 77.3 µM
- TGI (T-47D breast): > 77 µM
- TGI (SN12C renal): > 100 µM
- TGI (HOP-92 NSCLC): 31.9 µM
- TGI (UACC-62 melanoma): 18.8 µM
- TGI (OVCAR-4 ovarian): 30.9 µM
- TGI (MOLT-4 leukemia): 59.5 µM
- TGI (SK-MEL-5 melanoma): > 100 µM
- TGI (SF-539 CNS): 14.1 µM
- TGI (EKVX NSCLC): > 67.2 µM
- TGI (NCI-H460 lung): 17.6 µM
- TGI (MALME-3M melanoma): 36.8 µM
- TGI (SK-MEL-2 melanoma): 2.44 µM
- TGI (CCRF-CEM leukemia): 18.9 µM
- TGI (SR leukemia): > 86.3 µM
- TGI (OVCAR-8 ovarian): > 42.2 µM
- TGI (NCI-H226 lung): > 91.2 µM
- TGI (MDA-N): 20.5 µM
- TGI (RPMI-8226 leukemia): 1.05 µM
- TGI (NCI-H23 lung): 23.1 µM
- TGI (K-562 leukemia): > 71.4 µM
- TGI (RXF 393 renal): 30.6 µM
- TGI (HCT-15 colon): > 47.8 µM
- TGI (OVCAR-5 ovarian): > 92.7 µM
- TGI (U251 CNS): 22 µM
- TGI (SNB-19 CNS): 17.3 µM
- TGI (SW-620 colon): 33.4 µM
- TGI (HOP-62 NSCLC): > 74.2 µM
- TGI (MDA-MB-231 breast): 32.2 µM
- TGI (KM12 colon): 20.5 µM
- TGI (A549 NSCLC): 20.2 µM
- TGI (MCF7 breast): 8.67 µM
- TGI (A498 renal): 17.1 µM
- TGI (BT-549 breast): 31 µM
- TGI (MDA-MB-435): 8.38 µM
- TGI (SK-OV-3 ovarian): 29.7 µM
- TGI (CAKI-1 renal): > 29 µM
- TGI (DU-145 prostate): > 100 µM
- TGI (ACHN renal): > 72.5 µM
- TGI (M14 melanoma): 26.1 µM
- TGI (SK-MEL-28 melanoma): 22.4 µM
- TGI (OVCAR-3 ovarian): 28.7 µM
- TGI (SF-268 CNS): 21.7 µM
- TGI (HL-60(TB) leukemia): 16 µM
- TGI (HCT-116 colon): > 100 µM
- TGI (HT29 colon): > 50.9 µM
- TGI (IGROV1 ovarian): 5.05 µM
- TGI (PC-3 prostate): > 81.6 µM
- TGI (SNB-75 CNS): 22.3 µM
- TGI (UO-31 renal): 2.69 µM
- TGI (HS 578T breast): 62.9 µM
- TGI (NCI-H522 lung): 1.33 µM
- TGI (SF-295 CNS): 10.7 µM
- TGI (LOX IMVI melanoma): 13 µM
- TGI (786-0 renal): > 100 µM
